One compound from ChEMBL document CHEMBL4011630 (J Med Chem, 2017) can be followed below.

In assay [1] the target is Nicotinic acetylcholine receptor alpha6/alpha3/beta4 (Rattus norvegicus, UniProt P04757+P12392+P43143). The assay can be described thus: Antagonist activity at rat alpha6/alpha3beta4 nACHR expressed in xenopous laevis oocyte assessed as inhibition of ACh induced channel current at -70 mV holding potential by two electrode voltage clamp method.
Assay [2] deals with Neuronal acetylcholine receptor; alpha3/beta4 (Rattus norvegicus, UniProt P04757+P12392). The assay can be described thus: Antagonist activity at rat alpha3beta4 nACHR expressed in xenopous laevis oocyte assessed as inhibition of ACh induced channel current at -70 mV holding potential by two electrode voltage clamp method.
The species named for a further assay is Rattus norvegicus. The assay is described as follows: Selectivity ratio of IC50 for rat alpha6/alpha3beta4 nACHR expressed in xenopous laevis oocyte at -70 mV holding potential to IC50 for rat alpha3beta4 nACHR expressed in xenopous laevis oocyte at -70 mV holding potential.

pIC50: −log10 of the molar value.

Sequence of Nicotinic acetylcholine receptor alpha6/alpha3/beta4 (P04757 whole entry): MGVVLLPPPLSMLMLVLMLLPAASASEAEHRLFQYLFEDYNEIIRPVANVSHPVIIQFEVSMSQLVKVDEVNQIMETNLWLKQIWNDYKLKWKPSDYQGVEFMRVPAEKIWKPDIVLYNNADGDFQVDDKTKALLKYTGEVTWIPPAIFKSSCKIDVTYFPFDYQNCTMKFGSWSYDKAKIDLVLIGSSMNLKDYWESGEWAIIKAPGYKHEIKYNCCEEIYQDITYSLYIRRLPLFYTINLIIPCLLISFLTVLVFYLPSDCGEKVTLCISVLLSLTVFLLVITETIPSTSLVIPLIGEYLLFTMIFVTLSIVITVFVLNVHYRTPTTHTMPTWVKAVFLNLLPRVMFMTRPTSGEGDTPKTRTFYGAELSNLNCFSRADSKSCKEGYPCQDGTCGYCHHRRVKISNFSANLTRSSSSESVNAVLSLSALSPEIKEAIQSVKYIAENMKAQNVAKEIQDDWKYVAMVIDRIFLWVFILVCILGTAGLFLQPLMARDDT
Sequence of Nicotinic acetylcholine receptor alpha6/alpha3/beta4 (P12392 whole entry): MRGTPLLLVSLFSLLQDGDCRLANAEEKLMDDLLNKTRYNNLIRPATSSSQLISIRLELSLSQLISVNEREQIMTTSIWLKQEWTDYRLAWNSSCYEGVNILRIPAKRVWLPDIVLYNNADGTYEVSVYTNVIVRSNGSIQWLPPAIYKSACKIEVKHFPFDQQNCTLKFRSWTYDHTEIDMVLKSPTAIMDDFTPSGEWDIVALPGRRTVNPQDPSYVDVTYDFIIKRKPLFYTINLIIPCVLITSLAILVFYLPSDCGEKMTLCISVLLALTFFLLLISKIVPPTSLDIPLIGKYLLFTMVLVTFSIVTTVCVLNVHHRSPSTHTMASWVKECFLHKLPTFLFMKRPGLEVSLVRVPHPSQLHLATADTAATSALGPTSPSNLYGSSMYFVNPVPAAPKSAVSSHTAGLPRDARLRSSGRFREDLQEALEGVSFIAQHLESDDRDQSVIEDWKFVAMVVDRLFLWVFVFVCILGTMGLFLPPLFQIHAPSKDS
Sequence of Nicotinic acetylcholine receptor alpha6/alpha3/beta4 (P43143 whole entry): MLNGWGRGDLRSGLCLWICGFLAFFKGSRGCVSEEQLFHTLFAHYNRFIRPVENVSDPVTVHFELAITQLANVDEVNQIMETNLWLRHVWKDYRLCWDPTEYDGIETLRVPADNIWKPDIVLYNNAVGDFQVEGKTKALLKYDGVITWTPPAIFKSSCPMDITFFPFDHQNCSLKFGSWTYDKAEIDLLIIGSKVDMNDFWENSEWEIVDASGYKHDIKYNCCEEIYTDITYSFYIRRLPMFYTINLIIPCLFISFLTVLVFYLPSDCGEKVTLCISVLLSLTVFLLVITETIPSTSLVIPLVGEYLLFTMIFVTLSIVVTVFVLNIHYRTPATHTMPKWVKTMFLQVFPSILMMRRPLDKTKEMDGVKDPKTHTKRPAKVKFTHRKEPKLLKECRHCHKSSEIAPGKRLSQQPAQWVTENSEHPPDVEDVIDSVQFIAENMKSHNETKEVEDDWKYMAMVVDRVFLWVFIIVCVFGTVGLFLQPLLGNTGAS
Sequence of Neuronal acetylcholine receptor; alpha3/beta4 (P04757 whole entry): as the sequence (P04757 whole entry) above
Sequence of Neuronal acetylcholine receptor; alpha3/beta4 (P12392 whole entry): as the sequence (P12392 whole entry) above

Consider `CC(C)C[C@@H]1NC(=O)[C@H](C(C)C)NC(=O)[C@H](C)NC(=O)[C@@H]2CSSC[C@H](NC(=O)CN)C(=O)N[C@@H](CSSC[C@H](C(N)=O)NC(=O)[C@H](Cc3ccc(O)cc3)NC1=O)C(=O)N[C@@H](CO)C(=O)N[C@@H]([C@@H](C)O)C(=O)N1CCC[C@H]1C(=O)N1CCC[C@H]1C(=O)N2`, for which the pIC50 in assay [1] is 8.81; in assay [2] it was 7.56. In addition, the Ratio IC50 in the assay filed under Rattus norvegicus was 0.056.
